Consider two compounds from ChEMBL document CHEMBL3045418, “Design, synthesis and antidepressant activity evaluation 2-hydroxy-4,6-diisoprenyloxychalcone derivatives” (2013).

Holding throughout (assay type): functional
Common to all, as to settings: route intraperitoneal

The test system of test [1] is Mus musculus. Kind of test: Increase in yohombine-induced mortality in Kunming Mus musculus (mouse) at 30 mg/kg, ip administered for 1 hr prior to yohombine challenge measured after 24 hr (reference value: 20%).
Test [2] has as its system Mus musculus. Kind of test: Antidepressant activity in Kunming Mus musculus (mouse) assessed as immobility time at 10 mg/kg, ip administered 30 min prior to testing measured after 2 to 6 min by tail suspension test (reference value: 130.5 +/- 9.6 secs).
Test [3] relates to Mus musculus. Kind of test: Antidepressant activity in Kunming Mus musculus (mouse) assessed as immobility time at 10 mg/kg, ip administered 30 min prior to testing measured after 2 to 6 min by forced swimming test (reference value: 116.7 +/- 12.3 secs).

Each structure is given as a SMILES string.

The compound `CN(C)CCCN1c2ccccc2CCc2ccc(Cl)cc21` [CLOMIPRAMINE] returned a mortality at 30 mg/kg in the test with Mus musculus [1] of 80%.

Take `CNCCC(Oc1ccc(C(F)(F)F)cc1)c1ccccc1` (stereo not drawn) [FLUOXETINE]: the values for the Time in the test on Mus musculus [2] and in the test on Mus musculus [3] were 75.6 s and 68.6 s, respectively.

Usually mortality stands for the share of the test organisms that died.
